Results: ChEMBL document CHEMBL3612028, “Design, synthesis, pharmacological evaluation and molecular dynamics of β-amino acids morphan-derivatives as novel ligands for opioid receptors” (Eur J Med Chem, 2015)

How the values were obtained:
[1] = Displacement of [3H]-diprenorphine from opioid receptor in rat brain membrane homogenates after 1 hr by liquid scintillation counting; type: cell membranes
[2] = target: Mu opioid receptor-like OR2 (Danio rerio, UniProt B8JHS2); assay: Displacement of [3H]-diprenorphine from zebrafish mu opioid receptor expressed in HEK293 cells after 1 hr by liquid scintillation counting; type: cell-based
Sequence of Mu opioid receptor-like OR2 (B8JHS2 whole entry): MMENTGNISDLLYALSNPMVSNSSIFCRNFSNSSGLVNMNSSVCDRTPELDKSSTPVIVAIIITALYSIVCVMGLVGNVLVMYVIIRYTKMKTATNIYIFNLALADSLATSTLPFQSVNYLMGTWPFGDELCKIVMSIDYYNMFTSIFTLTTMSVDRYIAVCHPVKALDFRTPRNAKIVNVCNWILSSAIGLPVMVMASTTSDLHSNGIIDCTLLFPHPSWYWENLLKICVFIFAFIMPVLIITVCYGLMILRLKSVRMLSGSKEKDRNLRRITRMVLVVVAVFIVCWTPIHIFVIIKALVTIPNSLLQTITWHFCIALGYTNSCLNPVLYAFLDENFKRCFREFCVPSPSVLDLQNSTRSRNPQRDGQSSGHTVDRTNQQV

SMILES | Ki [1] | Ki [2]
O=C(O)[C@@H]1[C@@H]2CCC[C@H]1NCC2 | > 100 µM | 
COC(=O)[C@@H]1[C@@H]2CCC[C@H]1NCC2 | 17.1 µM | 35.3 µM
COC(=O)[C@@H]1[C@@H]2CCC[C@H]1N(Cc1ccccc1)CC2 | 14.8 µM | 37 µM
O=C(Oc1ccccc1)[C@@H]1[C@@H]2CCC[C@H]1NCC2 | 10.9 µM | 32 µM
COC(=O)[C@@H]1[C@@H]2CCC[C@H]1N(CCc1ccccc1)CC2 | 2.69 µM | 8.24 µM
O=C(Oc1cccc(O)c1)[C@@H]1[C@@H]2CCC[C@H]1NCC2 | 4.04 µM | 9.52 µM
O=C(Oc1ccc(O)cc1)[C@@H]1[C@@H]2CCC[C@H]1NCC2 | 1.92 µM | 12.7 µM
COC(=O)[C@H](Cc1ccccc1)NC(=O)[C@@H]1[C@@H]2CCC[C@H]1NCC2 | 14.8 µM | 78 µM
COC(=O)[C@@H]1[C@@H]2CCC[C@H]1N(C(=O)[C@@H](N)Cc1ccccc1)CC2 | 32.9 µM | 75.8 µM
